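Five concentrations, 48 hours, 96-well plates. GI50 marks 50% less growth. Definition used: TGI = concentration required for complete inhibition of growth.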
Legend:
Assay in all cases: growth of human tumour cells (NCI), 48 h
COLO 205 colon = system: COLO 205 colon
KM20L2 colon = system: KM20L2 colon
NCI-H460 lung = system: NCI-H460 lung
SNB-19 CNS = system: SNB-19 CNS
SNB-78 CNS = system: SNB-78 CNS
UACC-62 melanoma = system: UACC-62 melanoma
XF 498 CNS = system: XF 498 CNS
HCC-2998 colon = system: HCC-2998 colon
OVCAR-5 ovarian = system: OVCAR-5 ovarian
BT-549 breast = system: BT-549 breast
MDA-MB-231 breast = system: MDA-MB-231 breast

For `Clc1ccc(C2SCc3nc4ccccc4n32)cc1` (stereo unspecified), the TGI (COLO 205 colon) was 36.8 µM, the TGI (KM20L2 colon) was greater than 100 µM and the TGI (NCI-H460 lung) was 93.3 µM. It also gave a TGI (SNB-19 CNS) of 77 µM, a TGI (SNB-78 CNS) greater than 100 µM and a TGI (UACC-62 melanoma) of 43.6 µM. The TGI (XF 498 CNS) was 27.5 µM.

In the case of `CC(=O)/C=C(/C)[O-].CC(=O)/C=C(/C)[O-].CC(=O)[CH-]C(C)=O.CC(=O)[CH-]C(C)=O.[Zr+4]`, the GI50 (HCC-2998 colon) is reported as greater than 100 µM, the TGI (HCC-2998 colon) is reported as greater than 100 µM and the GI50 (NCI-H460 lung) is reported as greater than 100 µM. For the same molecule, the TGI (NCI-H460 lung) was greater than 100 µM, the GI50 (OVCAR-5 ovarian) was greater than 100 µM and the TGI (OVCAR-5 ovarian) was greater than 100 µM. For the same molecule, the GI50 (SNB-19 CNS) was greater than 100 µM, the TGI (SNB-19 CNS) was greater than 100 µM and the GI50 (UACC-62 melanoma) was greater than 100 µM. It also gave a TGI (UACC-62 melanoma) greater than 100 µM, a GI50 (XF 498 CNS) greater than 100 µM and a TGI (XF 498 CNS) greater than 100 µM.

In the case of `O=C(CC(=O)N1N=C(c2ccccc2)C(N=Nc2ccc(S(=O)(=O)CCOS(=O)(=O)O)cc2)C1=O)Nc1ccc(Cl)cc1` (stereo unspecified), the TGI (BT-549 breast) is reported as greater than 100 µM, the TGI (COLO 205 colon) is reported as greater than 100 µM and the TGI (HCC-2998 colon) is reported as greater than 100 µM. For the same molecule, the TGI (MDA-MB-231 breast) was greater than 100 µM, the TGI (NCI-H460 lung) was greater than 100 µM and the TGI (OVCAR-5 ovarian) was greater than 100 µM. It also gave a TGI (SNB-19 CNS) greater than 100 µM and a TGI (UACC-62 melanoma) greater than 100 µM.

Molecule `Cc1ccc2sc3c(NCCCN)nc4ccccc4c3c(=O)c2c1` has a GI50 (BT-549 breast) of 16.5 µM, a TGI (BT-549 breast) of 37.4 µM and a GI50 (COLO 205 colon) of 2.19 µM. It also gave a TGI (COLO 205 colon) of 5.13 µM, a GI50 (HCC-2998 colon) of 1.74 µM and a TGI (HCC-2998 colon) of 3.25 µM. For the same molecule, the GI50 (MDA-MB-231 breast) was 1.7 µM, the TGI (MDA-MB-231 breast) was 3.3 µM and the GI50 (NCI-H460 lung) was 1.84 µM. It also gave a TGI (NCI-H460 lung) of 3.56 µM, a GI50 (OVCAR-5 ovarian) of 1.71 µM and a TGI (OVCAR-5 ovarian) of 3.27 µM. The GI50 (SNB-19 CNS) was 1.86 µM, the TGI (SNB-19 CNS) was 3.69 µM and the GI50 (UACC-62 melanoma) was 1.74 µM. It also gave a TGI (UACC-62 melanoma) of 3.24 µM.

`O=C1C(Cl)N(c2ccc([N+](=O)[O-])cc2)C1c1c[nH]c2ccccc12` (stereo unspecified) gave a TGI (COLO 205 colon) greater than 100 µM, a TGI (KM20L2 colon) greater than 100 µM and a TGI (NCI-H460 lung) greater than 100 µM. The TGI (OVCAR-5 ovarian) was greater than 100 µM, the TGI (SNB-19 CNS) was greater than 100 µM and the TGI (UACC-62 melanoma) was greater than 100 µM. The TGI (XF 498 CNS) was greater than 100 µM.

Molecule `CCOC(=O)c1sc2nc(SC)nc3c2c1NCN3C` has a TGI (BT-549 breast) greater than 100 µM, a TGI (COLO 205 colon) greater than 100 µM and a TGI (HCC-2998 colon) greater than 100 µM. It also gave a TGI (MDA-MB-231 breast) of 92.5 µM, a TGI (NCI-H460 lung) greater than 100 µM and a TGI (OVCAR-5 ovarian) greater than 100 µM. The TGI (SNB-19 CNS) was 75.3 µM and the TGI (UACC-62 melanoma) was greater than 100 µM.

Work on `CC1(C)CCC2=C(O1)c1ccccc1C(=Nc1ccc([N+](=O)[O-])cc1)C2=O` yielded a TGI (BT-549 breast) of 44 µM, a GI50 (COLO 205 colon) of 16.8 µM and a TGI (COLO 205 colon) of 30.4 µM. For the same molecule, the TGI (HCC-2998 colon) was 32.2 µM, the TGI (MDA-MB-231 breast) was 43.2 µM and the TGI (NCI-H460 lung) was 29.1 µM. It also gave a GI50 (OVCAR-5 ovarian) of 14.5 µM, a TGI (OVCAR-5 ovarian) of 28.2 µM and a TGI (SNB-19 CNS) of 32.5 µM. For the same molecule, the TGI (UACC-62 melanoma) was 30.9 µM.

With `COC(=O)/C1=C/C=C\C[C@@]2(C)CC(c3ccoc3)OC(=O)[C@@H]2CC[C@H]1C` (stereo partly specified) the TGI (BT-549 breast) was greater than 25 µM, the TGI (COLO 205 colon) was greater than 25 µM and the TGI (HCC-2998 colon) was greater than 25 µM. For the same molecule, the TGI (MDA-MB-231 breast) was greater than 25 µM, the TGI (NCI-H460 lung) was greater than 25 µM and the TGI (OVCAR-5 ovarian) was greater than 25 µM. For the same molecule, the TGI (SNB-19 CNS) was greater than 25 µM and the TGI (UACC-62 melanoma) was greater than 25 µM.

`COc1cc2nc(-c3cccs3)nc(Nc3ccccc3C(=O)NN)c2cc1OC` gave a TGI (BT-549 breast) greater than 100 µM, a TGI (COLO 205 colon) greater than 100 µM and a TGI (HCC-2998 colon) greater than 100 µM. For the same molecule, the TGI (MDA-MB-231 breast) was greater than 100 µM, the TGI (NCI-H460 lung) was greater than 100 µM and the TGI (OVCAR-5 ovarian) was greater than 100 µM. The TGI (SNB-19 CNS) was greater than 100 µM and the TGI (UACC-62 melanoma) was greater than 100 µM.

`C[Si](C)(C)OC1(C#N)c2ccccc2CCCC12CCCC2` (stereo unspecified) gave a TGI (BT-549 breast) greater than 100 µM, a TGI (COLO 205 colon) greater than 100 µM and a TGI (HCC-2998 colon) of 44 µM. It also gave a TGI (MDA-MB-231 breast) greater than 100 µM, a TGI (NCI-H460 lung) greater than 100 µM and a TGI (OVCAR-5 ovarian) greater than 100 µM. For the same molecule, the TGI (SNB-19 CNS) was greater than 100 µM and the TGI (UACC-62 melanoma) was greater than 100 µM.

With `CSc1nnnc2ccccc12` the TGI (BT-549 breast) was greater than 100 µM, the TGI (COLO 205 colon) was greater than 100 µM and the TGI (HCC-2998 colon) was greater than 100 µM. The TGI (MDA-MB-231 breast) was greater than 100 µM, the TGI (NCI-H460 lung) was greater than 100 µM and the TGI (OVCAR-5 ovarian) was greater than 100 µM. It also gave a TGI (SNB-19 CNS) greater than 100 µM and a TGI (UACC-62 melanoma) greater than 100 µM.

Work on `CCn1c(CCCc2nc3c([nH]2)c(=O)n(C)c(=O)n3C)nc2c1c(=O)n(C)c(=O)n2C` yielded a TGI (BT-549 breast) greater than 100 µM, a TGI (COLO 205 colon) of 27 µM and a TGI (HCC-2998 colon) greater than 100 µM. The TGI (MDA-MB-231 breast) was greater than 100 µM, the TGI (NCI-H460 lung) was greater than 100 µM and the TGI (OVCAR-5 ovarian) was greater than 100 µM. It also gave a TGI (SNB-19 CNS) greater than 100 µM and a TGI (UACC-62 melanoma) greater than 100 µM.

For `O=C1Sc2ccccc2C(=O)N2CCSC12` (stereo unspecified), the TGI (COLO 205 colon) was greater than 100 µM, the TGI (HCC-2998 colon) was greater than 100 µM and the TGI (KM20L2 colon) was greater than 100 µM. For the same molecule, the TGI (NCI-H460 lung) was greater than 100 µM, the TGI (OVCAR-5 ovarian) was greater than 100 µM and the TGI (SNB-19 CNS) was greater than 100 µM. The TGI (SNB-78 CNS) was greater than 100 µM and the TGI (UACC-62 melanoma) was greater than 100 µM.

With `O=C(CCCCCNC(=O)c1ccc(Cl)cc1)NO` the TGI (BT-549 breast) was greater than 100 µM, the TGI (COLO 205 colon) was 10.5 µM and the TGI (HCC-2998 colon) was 18.3 µM. For the same molecule, the TGI (MDA-MB-231 breast) was 21 µM, the TGI (NCI-H460 lung) was 39.6 µM and the TGI (OVCAR-5 ovarian) was 8.43 µM. The TGI (SNB-19 CNS) was greater than 100 µM and the TGI (UACC-62 melanoma) was 12.1 µM.

`Cc1cc2nc3c(C#N)c(C)c(CCCl)c(Cl)n3c2cc1C` was tested, and the TGI (BT-549 breast) was 7.15 µM, the TGI (COLO 205 colon) was 14.8 µM and the TGI (HCC-2998 colon) was 6.23 µM. It also gave a TGI (MDA-MB-231 breast) of 3.66 µM, a TGI (NCI-H460 lung) greater than 36.6 µM and a TGI (OVCAR-5 ovarian) of 5.86 µM. It also gave a TGI (SNB-19 CNS) of 36.3 µM and a TGI (UACC-62 melanoma) of 4.12 µM.

With `NS(=O)(=O)c1nnc(NS(=O)(=O)c2cccc3cccnc23)s1` the TGI (BT-549 breast) was greater than 100 µM, the TGI (COLO 205 colon) was greater than 100 µM and the TGI (HCC-2998 colon) was greater than 100 µM. The TGI (MDA-MB-231 breast) was greater than 100 µM, the TGI (NCI-H460 lung) was greater than 100 µM and the TGI (OVCAR-5 ovarian) was greater than 100 µM. It also gave a TGI (SNB-19 CNS) greater than 100 µM and a TGI (UACC-62 melanoma) greater than 100 µM.

Molecule `COCC(C#N)NC1CC(OC2CC(O)(C(=O)CO)Cc3c(O)c4c(c(O)c32)C(=O)c2c(OC)cccc2C4=O)OC(C)C1O` (stereo unspecified) has a TGI (BT-549 breast) of 0.653 µM, a TGI (COLO 205 colon) of 0.471 µM and a TGI (HCC-2998 colon) of 0.471 µM. It also gave a TGI (KM20L2 colon) of 2.89 µM, a TGI (MDA-MB-231 breast) of 0.729 µM and a TGI (NCI-H460 lung) of 0.189 µM. It also gave a TGI (OVCAR-5 ovarian) of 2.54 µM, a TGI (SNB-19 CNS) of 2.61 µM and a TGI (SNB-78 CNS) of 4.54 µM. It also gave a TGI (UACC-62 melanoma) of 0.21 µM and a TGI (XF 498 CNS) of 0.0678 µM.

Source: PubChem BioAssay (NCI)
